Holding throughout (experiment): relative viability (nuclei count vs DMSO), 5 days (fraction); higher = more cells survive
Compound in the assay “Decitabine + Pemetrexed”: Nc1ncn([C@H]2C[C@H](O)[C@@H](CO)O2)c(=O)n1 [Decitabine] + Nc1nc2[nH]cc(CCc3ccc(C(=O)N[C@@H](CCC(=O)O)C(=O)O)cc3)c2c(=O)[nH]1 [Pemetrexed] (partner 0.2 µM)
An outline of the steps:
(§1)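 One day after seeding in 1536-well plates, lung cancer cell lines were dosed by pin tool. Dosing was either single-drug or a fixed anchor-drug dose plus five library-drug doses (not always all listed) in √10 steps. After 5 days, nuclei were stained in one fix-and-stain step and counted on 4× images, and relative viability is the nuclei count of treated wells over that of vehicle wells, given as the median of duplicate plates.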

Compound in the assay “Cediranib + Foretinib”: COc1cc2c(Oc3ccc4[nH]c(C)cc4c3F)ncnc2cc1OCCCN1CCCC1 [Cediranib] + COc1cc2c(Oc3ccc(NC(=O)C4(C(=O)Nc5ccc(F)cc5)CC4)cc3F)ccnc2cc1OCCCN1CCOCC1 [Foretinib] (partner 0.25 µM)
An outline of the steps: as §1

Compound in the assay “Halofuginone + Lapatinib”: O=C(C[C@H]1NCCC[C@@H]1O)Cn1cnc2cc(Br)c(Cl)cc2c1=O (racemic) [Halofuginone] + CS(=O)(=O)CCNCc1ccc(-c2ccc3ncnc(Nc4ccc(OCc5cccc(F)c5)c(Cl)c4)c3c2)o1 [Lapatinib] (partner 2 µM)
An outline of the steps: as §1

Compound in the assay “Decitabine + Alpelisib”: Nc1ncn([C@H]2C[C@H](O)[C@@H](CO)O2)c(=O)n1 [Decitabine] + Cc1nc(NC(=O)N2CCC[C@H]2C(N)=O)sc1-c1ccnc(C(C)(C)C(F)(F)F)c1 [Alpelisib] (partner 2 µM)
An outline of the steps: as §1

Take NCI-H2342: the relative viability with Decitabine + Pemetrexed (first compound 0.04 µM) came to 0.734; with Decitabine + Pemetrexed (first compound 0.1265 µM), 0.733; in the assay with Decitabine + Pemetrexed (first compound 0.4 µM) it was 0.731; with Decitabine + Pemetrexed (first compound 1.265 µM) it was 0.642; in the assay with Decitabine + Pemetrexed (first compound 4 µM) it was 0.663; with Cediranib + Foretinib (first compound 0.04 µM), 1.14. In addition, the relative viability with Cediranib + Foretinib (first compound 0.1265 µM) amounted to 1.07; with Cediranib + Foretinib (first compound 0.4 µM), 0.927; with Cediranib + Foretinib (first compound 1.265 µM), 1.06; in the assay with Cediranib + Foretinib (first compound 4 µM) it was 1.12.
In the case of NCI-H1299, the relative viability came to 0.995 with Halofuginone + Lapatinib (first compound 0.001 µM); 1 with Halofuginone + Lapatinib (first compound 0.003162 µM); 0.916 with Halofuginone + Lapatinib (first compound 0.01 µM); 0.941 with Halofuginone + Lapatinib (first compound 0.03162 µM); 0.65 in the assay with Halofuginone + Lapatinib (first compound 0.1 µM); 1.1 in the assay with Cediranib + Foretinib (first compound 0.04 µM). Also, the relative viability with Cediranib + Foretinib (first compound 0.1265 µM) is 1.05; in the assay with Cediranib + Foretinib (first compound 0.4 µM) it was 1.13; in the assay with Cediranib + Foretinib (first compound 1.265 µM), 1.1; with Cediranib + Foretinib (first compound 4 µM), 1.15; in the assay with Decitabine + Alpelisib (first compound 0.04 µM), 1.07; with Decitabine + Alpelisib (first compound 0.1265 µM), 1.07. Further, the figures for the relative viability in the assay with Decitabine + Alpelisib (first compound 0.4 µM), in the assay with Decitabine + Alpelisib (first compound 1.265 µM) and in the assay with Decitabine + Alpelisib (first compound 4 µM) were 0.985, 0.904 and 0.899, respectively.
Turning to NCI-H522, the relative viability with Decitabine + Pemetrexed (first compound 0.04 µM) was determined as 0.979; with Decitabine + Pemetrexed (first compound 0.1265 µM), 0.839; with Decitabine + Pemetrexed (first compound 0.4 µM), 0.677; in the assay with Decitabine + Pemetrexed (first compound 1.265 µM) it was 0.705; with Decitabine + Pemetrexed (first compound 4 µM), 0.505.
As to NCI-H1623, the relative viability with Cediranib + Foretinib (first compound 0.04 µM) is 0.974; with Cediranib + Foretinib (first compound 0.1265 µM), 0.59; with Cediranib + Foretinib (first compound 0.4 µM), 0.793; with Cediranib + Foretinib (first compound 1.265 µM), 0.861; with Cediranib + Foretinib (first compound 4 µM), 0.805.
Consider NCI-H1648, for which the relative viability in the assay with Decitabine + Pemetrexed (first compound 0.04 µM) was found to be 0.637; with Decitabine + Pemetrexed (first compound 0.1265 µM), 0.582; with Decitabine + Pemetrexed (first compound 0.4 µM), 0.506; with Decitabine + Pemetrexed (first compound 1.265 µM), 0.483; in the assay with Decitabine + Pemetrexed (first compound 4 µM) it was 0.435.
For the cell line NCI-H1703, the relative viability came out at 1.15 with Halofuginone + Lapatinib (first compound 0.001 µM); 1.28 with Halofuginone + Lapatinib (first compound 0.003162 µM); 0.95 with Halofuginone + Lapatinib (first compound 0.01 µM); 0.792 with Halofuginone + Lapatinib (first compound 0.03162 µM); 0.427 with Halofuginone + Lapatinib (first compound 0.1 µM); 0.468 in the assay with Cediranib + Foretinib (first compound 0.04 µM). Also, the relative viability with Cediranib + Foretinib (first compound 0.1265 µM) is 0.37; with Cediranib + Foretinib (first compound 0.4 µM) it was 0.247; in the assay with Cediranib + Foretinib (first compound 1.265 µM), 0.33; in the assay with Cediranib + Foretinib (first compound 4 µM), 0.337; with Decitabine + Alpelisib (first compound 0.04 µM), 0.248; with Decitabine + Alpelisib (first compound 0.1265 µM), 0.27. Moreover, the relative viability in the assay with Decitabine + Alpelisib (first compound 0.4 µM) turned out to be 0.259; in the assay with Decitabine + Alpelisib (first compound 1.265 µM), 0.246; with Decitabine + Alpelisib (first compound 4 µM), 0.195.
For ABC-1, the relative viability in the assay with Halofuginone + Lapatinib (first compound 0.001 µM) turned out to be 1.22; with Halofuginone + Lapatinib (first compound 0.003162 µM) it was 1.32; in the assay with Halofuginone + Lapatinib (first compound 0.01 µM), 1.1; with Halofuginone + Lapatinib (first compound 0.03162 µM) it was 1.06; with Halofuginone + Lapatinib (first compound 0.1 µM), 0.912; in the assay with Cediranib + Foretinib (first compound 0.04 µM), 1.17. The relative viability is 1.2 with Cediranib + Foretinib (first compound 0.1265 µM); 1.04 with Cediranib + Foretinib (first compound 0.4 µM); 0.879 in the assay with Cediranib + Foretinib (first compound 4 µM); 0.833 with Decitabine + Alpelisib (first compound 0.04 µM); 0.816 with Decitabine + Alpelisib (first compound 0.1265 µM); 0.786 with Decitabine + Alpelisib (first compound 0.4 µM). Moreover, the values for the relative viability in the assay with Decitabine + Alpelisib (first compound 1.265 µM) and with Decitabine + Alpelisib (first compound 4 µM) were 0.731 and 0.753, respectively.
As to ChaGo-K-1, the relative viability worked out at 0.27 with Decitabine + Pemetrexed (first compound 0.04 µM); 0.261 with Decitabine + Pemetrexed (first compound 0.1265 µM); 0.253 with Decitabine + Pemetrexed (first compound 0.4 µM); 0.251 with Decitabine + Pemetrexed (first compound 1.265 µM); 0.269 with Decitabine + Pemetrexed (first compound 4 µM); 0.921 in the assay with Cediranib + Foretinib (first compound 0.04 µM). For the same cell line, the relative viability with Cediranib + Foretinib (first compound 0.1265 µM) was 0.833; in the assay with Cediranib + Foretinib (first compound 0.4 µM), 0.837; with Cediranib + Foretinib (first compound 1.265 µM), 0.897; with Cediranib + Foretinib (first compound 4 µM), 1.

The values above are taken from the supplement of paper PMC10307832.
